Laboratory results from BindingDB's records for doi:10.1021/ml500507v (University of Cambridge, 2015).

Tests used:
[1] = target: T1, 5-hydroxytryptamine receptor 2C (Homo sapiens, UniProt P28335); test: Inhibition of Cy3B conjugated serotonin analogue binding to human recombinant 5-HT2C receptor expressed in Swiss mouse 3T3 cell membranes after 60 mins by fluorescence polarization assay
T1 sequence (P28335 whole entry): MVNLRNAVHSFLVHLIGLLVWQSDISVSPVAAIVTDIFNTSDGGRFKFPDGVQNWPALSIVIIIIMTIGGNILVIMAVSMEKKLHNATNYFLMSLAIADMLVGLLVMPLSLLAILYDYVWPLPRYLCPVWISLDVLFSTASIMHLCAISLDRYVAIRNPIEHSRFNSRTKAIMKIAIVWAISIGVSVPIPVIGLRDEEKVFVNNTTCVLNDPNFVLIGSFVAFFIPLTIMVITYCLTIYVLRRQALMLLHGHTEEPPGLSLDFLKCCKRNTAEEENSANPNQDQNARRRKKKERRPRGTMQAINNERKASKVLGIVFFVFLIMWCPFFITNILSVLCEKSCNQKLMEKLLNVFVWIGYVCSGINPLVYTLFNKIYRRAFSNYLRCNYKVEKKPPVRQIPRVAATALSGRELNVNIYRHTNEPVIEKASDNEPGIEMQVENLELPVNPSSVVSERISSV

[2] = target: T1, 5-hydroxytryptamine receptor 2C; test: Agonist activity at human recombinant 5-HT2C receptor expressed in Swiss mouse 3T3 cell membranes after 30 to 40 mins by GTPgammaS recruitment assay

SMILES	Ki [1] [µM]	EC50 [2] [µM]
CC(C)Nc1nc(Cc2ccccc2)cc2c1CCNCC2	0.013	–
CC(C)CNc1nc(Cc2ccccc2)cc2c1CCNCC2	0.012	0.036
c1ccc(Cc2cc3c(cn2)CCNCC3)cc1	0.035	–
c1ccc(CNc2nc(Cc3ccccc3)cc3c2CCNCC3)cc1	0.022	0.158
CN(C)c1nc(Cc2ccccc2)cc2c1CCNCC2	0.012	–
CCCNc1nc(Cc2ccccc2)cc2c1CCNCC2	0.004	–

Molecules with a lower Ki [1], results first:

Ki [1] [µM]	EC50 [2] [µM]	SMILES
0.003	0.009	CNc1nc(Cc2ccccc2)cc2c1CCNCC2
0.0005	–	c1ccc(Cc2cc3c(c(NCC4CC4)n2)CCNCC3)cc1
0.003	0.011	CCNc1nc(Cc2ccccc2)cc2c1CCNCC2
